Data set [1] can be described thus: Solubility in solvents pre-saturated with aqueous buffer at 55° C. Type of data set: physicochemical.
Data set [2] concerns Melibiase in the form of pelletised cells of Mortierella vinacea var raffinoseutilizer (ATCC 20034). Description: Hydrolysis of TCR to sucralose by melibiase pellets in aqueous buffer. Type of data set: biochemical. Particulars: for TCR hydrolysed: 55° C., pH 5.0, 1% (w/v) TCR. The protocol: The tetrachlorogalactoraffinose of Example 1 (20 mg) was placed in a screw-top bottle together with 0.1M-citrate-phosphate buffer (pH 5.0) (2 ml) to give a 1% (w/v) solution. This level of water was maintained during the following incubation period by addition of more water when required.
Melibiase in the form of pelletised cells of Mortierella vinacea var raffinoseutilizer (ATCC 20034) (supplied by Hokkaido Sugar Co, Japan) was added (10 mg) and the mixture was incubated at 55° C. for up to 100 hours. The degree of hydrolysis was followed periodically by t.l.c. analysis of withdrawn 250 μl aliquots eluted with ethyl acetate:ethanol:water (45:5:1) or by hplc on a Waters Dextropak Cl8 reverse phase column eluted by acetonitrile 20% (v/v) and products measured using a refractive index detector. The result is plotted in FIG. 1. It was found, for example, that about 53% had been hydrolysed after 48 hours and about 70% after 90 hours. The products were separated by chromatography and, in addition to sucralose, the presence of 6-chlorogalactose and TCR was detected. TCR can be used at up to 15% (w/v) in this system.

The subject of data set [3] is α-Galactosidase in the form of pelletized cells of M. vinacea var raffinoseutilizer (ATCC 20034). Kind of data set: Hydrolysis of TCR to sucralose in organic media. Type of data set: biochemical. The following applies: for Conversion of TCR into sucralose: 24 hours, 20 mM TCR, 55° C. The method, then:
The TCR of Example 1 (23 mg) was placed in a 5 ml screw-top vial and 2 ml of an organic solvent which had been pre-saturated with aqueous buffer (sodium acetate, 50 mM, pH 5.0) was added to give a 20 mM (1.15% w/v) solution. α-Galactosidase in the form of pelletized cells of M. vinacea var raffinoseutilizer (ATCC 20034) was added (100 mg) to each vial and the reactions were initiated by adding 1% v/v aqueous buffer, vortexing for 30 seconds, and placing the vial in a water-bath shaker at 55° C. and 100 rpm. Periodically, aliquots were removed and 25 μl were injected into an Hplc system fitted with a reverse phase (Waters Dextropak C18) column, using 20% aqueous acetonitrile as eluant, to measure the sucralose produced and the residual TCR. In the figure the progress of the hydrolysis of TCR into sucralose with time is plotted for aqueous buffer (curve 1) and for three solvents, methyl isobutyl ketone (2), ethyl acetate (3) and n-butanol (4). The hydrolysis reaction in methyl isobutyl ketone and in aqueous buffer were similar. Lower rates and conversions were obtained in ethyl acetate and n-butanol, respectively. In all cases, greater than 50% conversion in 24 hours was observed, with 70% conversions in aqueous buffer and methyl isobutyl ketone.
The reason that the time-course for TCR hydrolysis in ethyl acetate was lower than that in aqueous buffer at 20 mM TCR was due to the higher Km of TCR in ethyl acetate and not due to a lower catalytic activity. When 50 mM TCR was used, the rates and conversions of TCR hydrolysis in ethyl acetate were similar to those in aqueous buffer.

The test system of data set [4] is α-galactosidase of Absidia griseola. Kind of data set: TCR hydrolysis by cell debris of α-galactosidase organisms. Type of data set: biochemical. The method, then:
(§1) Organisms reported to have an α-galactosidase activity were obtained from the ATCC. They were grown in 500 ml shake flasks containing 100 ml of a mineral salts medium (Jayasuria, 1955 Journal of General Microbiology 12 419-428) containing 1 g/l yeast extract plus 5 g/l raffinose at 30° C. Cells were collected by centrifugation (5000 rev/min for 10 min) in the late exponential phase of growth, resuspended in 5 times their volume of citrate-phosphate buffer pH 5.0, and maintained at 0° C. in an ice bath and were disrupted by 3×20 second bursts in a MSE sonicator (Dawe Soniprobe Type 1130A) at maximum output. The resulting suspension was centrifuged (17,000 rev/min) for 30 minutes and both debris and supernatant assayed for α-galactosidase activity in units per g. dry weight of cell debris using p-nitrophenyl α-D-galactopyranoside (Sigma). Virtually no enzyme activity was detected in the supernatant. Cultures which were positive were then tested for TCR hydrolysis as in Example 4 and the results given in mg sucralose per g dry weight of cell debris per hour (for 70% conversion).

The test system of data set [5] is α-galactosidase of Aspergillus awamori. The data set is described as above. It counts as biochemical. The following applies: Aspergillus awamori ATCC 44733, for 70% conversion. The method, then: as §1
For data set [6], the system named is α-galactosidase of Aspergillus niger. The description is as above. Particulars: Aspergillus niger ATCC 36220, for 70% conversion. It counts as biochemical. The method, then: as §1
The subject of data set [7] is α-galactosidase of Circinella muscae. Described as above. It counts as biochemical. The protocol:
as §1

The subject of data set [8] is α-galactosidase of Mortierella vinacea. The description is as above. It counts as biochemical. The protocol: as §1
The test system of data set [9] is α-galactosidase of Saccharomyces uvarum. Described as above. It counts as biochemical. The following applies: Saccharomyces uvarum ATCC 42367, for 70% conversion. The method, then: as §1
For data set [10], the system named is α-galactosidase of Talaromyces thermophilus. The description is as above. It counts as biochemical. The following applies: Talaromyces thermophilus ATCC 16461, for 70% conversion. The method, then: as §1
Data set [11] in a line: Stability of sucralose under the enzyme treatment conditions. Type of data set: physicochemical. Particulars: about 55° C., pH 5.0. The method, then: In both aqueous and organic systems, the treatment should naturally be at the optimum temperature and pH for the enzyme which, for the M. vinacea melibiase is about 55° C. and pH 4.5-5.5. In water-saturated organic solvents this refers to the pH of the aqueous buffer. At this temperature and at a pH of 5.0, we find that the sucralose produced is not degraded.

The conditions of data set [12]: sweeter than sucrose; cited from earlier work.
The conditions of data set [13]: cited from earlier work.
Setting [14] is: organic solvent or mixture, ethyl acetate pre-saturated with aqueous buffer, 55° C.
The mark [15] stands for this setting: organic solvent or mixture, methyl isobutyl ketone pre-saturated with aqueous buffer, 55° C.
Where [16] appears, read: organic solvent or mixture, n-butanol pre-saturated with aqueous buffer, 55° C.
The mark [17] stands for this setting: organic solvent or mixture, n-octanol pre-saturated with aqueous buffer, 55° C.
Where [18] appears, read: organic solvent or mixture, nitrobenzene pre-saturated with aqueous buffer, 55° C.

In brackets after ≈: the same amount, converted by molar mass.

In general, solubility refers to the concentration that dissolves in the medium under given conditions. Broadly, the Km is the substrate concentration at which the rate is half of its maximum. Turning to `OC1C(CCl)OC(OCC2OC(OC3(CCl)OC(CCl)C(O)C3O)C(O)C(O)C2Cl)C(O)C1O` (centres unmarked) [TCR, 4,1',6',6"-tetrachloro-4,1',6',6"-tetradeoxygalactoraffinose], the solubility in [1] (aqueous buffer) was 150 mg/mL (≈ 259 mM); in [1] (setting [14]), above 500 mg/mL; in [1] (organic solvent or mixture, hydrophilic water-immiscible solvents (ethyl acetate, n-butanol, methyl isobutyl ketone)), above 500 mg/mL; in data set [1] (organic solvent or mixture, hydrophobic water-immiscible solvents (e.g. n-octanol, nitrobenzene, butyronitrile)), below 50 mg/mL; in data set [1] (setting [15]) it was above 500 mg/mL; in [1] (setting [16]), above 500 mg/mL. Moreover, the solubility in [1] (setting [17]) is 50 mg/mL (≈ 86.5 mM); in data set [1] (setting [18]), below 20 mg/mL; in [1] (water (aqueous buffer), 55° C.), 150 mg/mL (≈ 259 mM). For the same compound, in [2] (M. vinacea melibiase (Hokkaido Sugar Co.)), the “Rate of reaction on TCR relative to raffinose” value was “only a few percent of the rate on raffinose itself”. The TCR hydrolysed entry in data set [2] (after 48 hours) is recorded as “about 53%”; in [2] (after 90 hours), “about 70%”. Moreover, the Kcat in [2] (aqueous solution) was determined as 52.5 mg per g enzyme per hour; in data set [3] (ethyl acetate), 56.3 mg sucralose/g pellets/h. Also, the Michaelis constant (Km) in [2] (aqueous solution, read-out: Michaelis constant (Km)) stood at 5.8 mM; in [3] (ethyl acetate), 16.4 mM. Moreover, the “Conversion of TCR into sucralose” value was 70% in [3] (aqueous buffer), “greater than 50%” in data set [3] (ethyl acetate), 70% in data set [3] (methyl isobutyl ketone) and “greater than 50%” in [3] (n-butanol). Besides, the “TCR hydrolysis in highly water-miscible solvents” value in [3] (dioxane, acetone, methanol, THF, even with 30% v/v aqueous buffer) was “unable to support hydrolysis”. Further, the “TCR Hydrolysis” value in data set [4] (Absidia griseola ATCC 20430, for 70% conversion) is recorded as 0 mg sucralose per g dry weight; in data set [4] (Absidia griseola ATCC 20431, for 70% conversion) it was < 0.2 mg sucralose per g dry weight; in data set [4] (Absidia griseola ATCC 22618, for 70% conversion), 0 mg sucralose per g dry weight; in data set [5] it was 0 mg sucralose per g dry weight; in data set [6], 0.49 mg sucralose per g dry weight; in data set [7] (Circinella muscae ATCC 16008, for 70% conversion) it was 1.12 mg sucralose per g dry weight. The “TCR Hydrolysis” value in [7] (Circinella muscae ATCC 20394, for 70% conversion) is listed as < 0.2 mg sucralose per g dry weight; in data set [7] (Circinella muscae ATCC 22337, for 70% conversion), 0 mg sucralose per g dry weight; in data set [8] (Mortierella vinacea ATCC 20034, for 70% conversion) it was 1.09 mg sucralose per g dry weight; in data set [8] (Mortierella vinacea ATCC 34195, for 70% conversion) it was 1.33 mg sucralose per g dry weight; in data set [8] (Mortierella vinacea ATCC 42425, for 70% conversion), 1.06 mg sucralose per g dry weight; in data set [8] (Mortierella vinacea Hokkaido (pellets), for 70% conversion), 4.3 mg sucralose per g dry weight. The “TCR Hydrolysis” value in data set [9] and in data set [10] was 0 mg sucralose per g dry weight in each case.
Consider `OC[C@H]1O[C@H](O[C@]2(CCl)O[C@H](CCl)[C@@H](O)[C@@H]2O)[C@H](O)[C@@H](O)[C@H]1Cl` [sucralose, 4,1',6'-trichloro-4,1',6'-trideoxygalactosucrose], for which the solubility in [1] (setting [14]) is 57 mg/mL (≈ 143 mM); in data set [1] (setting [15]), 60 mg/mL (≈ 151 mM); in data set [1] (setting [16]), above 500 mg/mL; in [1] (setting [17]), below 10 mg/mL; in [1] (setting [18]) it was below 10 mg/mL; in data set [1] (water (aqueous buffer), 55° C.), 300 mg/mL (≈ 754 mM). Also, the “Degradation of sucralose produced” value in data set [11] is “not degraded”. For the same compound, the “Sweetness relative to sucrose” value in [12] is reported as “about 600 X”. Further, in [13], the Degradation in vivo result is “not degraded in vivo”.

(Values after patent publication US4826962A, “Tetrachlororaffinose and its use in the preparation of sucralose” (Tate & Lyle Public Limited Company, priority 1985, dated 1989).)
